How the values were obtained:
[1] = tested on: Vpr-BlaM containing HIV NL4-3 virus; experiment: HIV-1 viral entry assay (Vpr-BlaM, CCF2) in THP-1 cells; assay type: cell-based; conditions: THP-1 cells pre-treated overnight, compared to untreated control (FIGS. 12, 14)
Excerpt: To determine whether the disclosed molecules have effects on HIV-1 viral entry, a sensitive and specific enzyme-based assay developed by Marielle et al (6) was used. THP-1 cells were pre-treated with AMD3100 (HIV entry inhibitor), CC5A/PBS (cell lysate of Streptococcus Cristatus CC5A), and different amounts of G-M (GlcNAc-MurNAc, which is a disaccharide molecule of glycan strain) overnight. PBS treated THP-1 cells were used as the untreated control. After washing, Vpr-BlaM containing HIV NL4-3 virus was used to infect the cells. After washing again, the cells were subjected to CCF2 staining overnight. The following day, the cells were analyzed by FACSAria III for CCF2 (green/FITC-A) and cleaved CCF2 (DAPI-A) florescence.
THP-1 cells were treated with CC5Ap and with cell lysate from Streptococcus Mutant (S. MuP). The protocol described in Example 10 was followed to test the effects of CC5Ap and S.MuP on HIV viral entry.

MX2 = MX2 expression in THP-1 cells (qRT-PCR, Western-blot); assay type: cell-based, human; conditions: THP-1 cells, 50, 100, 200, 300 μg/ml, overnight (FIG. 8B)
Experimental: (§1) To determine whether CC5Ap induces MX2 expression, THP-1 cells were treated with different doses (units) of CC5Ap for 16 hours. The THP-1 cells were obtained from the NIH AIDS Reagent Program. One unit of CC5Ap is defined as the amount of CC5Ap needed to induce a 3-fold increase in A3G mRNA expression over a period of 16 hours, using 5×10^5 THP-1 cells in 500 μl of cell culture medium. MX2 expression was measured by qRT-PCR. After treatment the cells were either subjected to measuring MX2 expression by Western-blot analyses or infected with HIV-1.
(§2) Synthetic G-M from Toronto Research Chemicals (Cat: A178230) was purchased. The synthetic G-M structure was confirmed by 1H NMR (D2O) and MS. Different doses of G-M were used to treat THP-1 cells. The THP-1 cells were obtained from the NIH AIDS Reagent Program. Specifically, 50 μg, 100 μg, 200 μg and 300 μg/ml G-M (shown in FIGS. 8A-8C as G-M 0.5, 1, 2, 3, respectively) were used to treat THP-1 cells. 1 unit CC5A A/E and CC5Ap were used as the controls. The cells were treated overnight. The mRNA levels of A3G and MX2 were measured by qRT-PCR.

HIV IIIB = HIV IIIB replication in THP-1 cells, nine days culture; assay type: cell-based; conditions: THP-1 cells pre-treated 1 hour, qRT-PCR (FIG. 8C)
Experimental: To determine whether G-M inhibits HIV IIIB replication, THP-1 cells were pre-treated 1 hour with G-M or CC5Ap. 100 ng […] content of IIIB was added into the cell culture to infect the cells overnight. Post-infection, cells were washed 2 times and cultured for nine days. The viral supernatant was subjected to qRT-PCR to measure viral release.

A3G = A3G mRNA expression in THP-1 cells by qRT-PCR; assay type: cell-based, human
Experimental: Equal volumes of an S. cristatus CC5A whole cell extract (CC5A1E), fraction A (glycan strands and peptides), fraction B (glycan strands), and CC5Ap were used to treat THP-1 cells for 16 hours. THP-1 cell line is a human monocytic cell line derived from acute monocytic leukemia. The THP-1 cells were obtained from the NIH AIDS Reagent Program. qRT-PCR was used to detect the relative expression of A3G mRNA in THP-1 cells. PBS treated THP-1 cells were used as a control.
The cell wall of S. Mu was isolated from the bacteria and the isolated cell wall was subjected to the cell component isolation shown in FIG. 2A. Oligosaccharide molecules (from the same amount of bacteria) of CC5Ap and S. Mu were used to treat THP-1 cells. The THP-1 cells were obtained from the NIH AIDS Reagent Program. PBS and CC5A/E were used as the controls. A3G expression was measured by qRT-PCR.
as §1, §2

THP-1 cells = experiment: Cell number of G-M treated THP-1 samples; assay type: cell-based, human

SMILES: CC(=O)N[C@H]1[C@H](O[C@H]2[C@H](O[C@H](C)C(=O)O)[C@@H](NC(C)=O)C(O)O[C@@H]2CO)O[C@H](CO)[C@@H](O)[C@@H]1O (stereo partly drawn) [G-M, N-Acetyl-D-glucosamine-(1-4)-N-acetylmuramic acid]
- relative HIV entry [1]: reduced HIV entry dramatically
- MX2 mRNA expression (MX2): enhanced A3G mRNA expression (FIG. 8A) and MX2 mRNA expression (FIG. 8B) in a dose-dependent manner
- HIV IIIB replication (viral release) (HIV IIIB): inhibits HIV IIIB replication in a dose-dependent manner
- experimentally determined activity of synthetic G-M (A3G; 1 unit = amount inducing 3-fold A3G mRNA increase in 16 hours, 5×10^5 THP-1 cells in 500 μl): 0.005 units/μg
- A3G mRNA expression (A3G; THP-1 cells, 50, 100, 200, 300 μg/ml, overnight (FIG. 8A)): enhanced A3G mRNA expression (FIG. 8A) and MX2 mRNA expression (FIG. 8B) in a dose-dependent manner
- share of the total CC5Ap activity (A3G; based on G-M concentration of CC5Ap prep (about 100 μg/mL) and activity of synthetic G-M): about 5%
- noticeable cell number difference between PBS and treated samples (THP-1 cells): not observed

— patent US12186348B2, “Glycan strands and oligosaccharides derived from Streptococcus bacteria” (Meharry Medical College, priority 2018, dated 2025)
